Active and inactive are the calls of the source. The rule behind the calls is not given here.
Assays:
Type in all cases: cell-based
[1] = molecular target: T1, Orexin/Hypocretin receptor type 1 (Homo sapiens) (UniProt O43613); test: (§1) Displacement of [3H]-[…] from human orexin 1 receptor expressed in CHO cells incubated for 2 hrs by whole cell radioligand binding assay
T1 sequence (whole entry): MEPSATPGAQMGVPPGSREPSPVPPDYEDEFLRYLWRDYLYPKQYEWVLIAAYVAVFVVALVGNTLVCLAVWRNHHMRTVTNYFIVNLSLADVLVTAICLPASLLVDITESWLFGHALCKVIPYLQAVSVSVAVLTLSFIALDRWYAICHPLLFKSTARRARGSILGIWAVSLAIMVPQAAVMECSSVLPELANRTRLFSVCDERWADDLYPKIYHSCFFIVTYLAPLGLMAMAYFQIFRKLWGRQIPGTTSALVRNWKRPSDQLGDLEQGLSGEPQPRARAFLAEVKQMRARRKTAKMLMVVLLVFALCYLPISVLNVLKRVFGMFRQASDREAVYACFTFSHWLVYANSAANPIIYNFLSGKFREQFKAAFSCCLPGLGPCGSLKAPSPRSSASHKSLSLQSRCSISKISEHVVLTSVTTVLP

Homo sapiens = species: Homo sapiens; test: (§2) Displacement of [3H]-EMPA from human orexin 2 receptor expressed in CHO cells incubated for 2 hrs by whole cell radioligand binding assay
[2] = molecular target: T2, Orexin/Hypocretin receptor type 1 (Homo sapiens, UniProt O43613); test: as §1
T2 sequence (O43613 whole entry): T1 sequence (whole entry)

[3] = as §2; settings: for IC50: CHO

pKi [1] | Structure (SMILES) | pKi (Homo sapiens) | also measured
inactive | O=C(OCC(=O)N1N=C(c2ccc(Cl)cc2)C[C@H]1c1ccco1)c1ccc(-n2cccn2)nc1 | inactive | –
inactive | Cc1cc(C(C)(C)C)cc(C)c1Cn1cnc2c1c(=O)n(C)c(=O)n2C | inactive | –
inactive | Cc1ccc2c(c1)C(=O)N(CCC(=O)N1CCCc3ccccc31)C2=O | inactive | –
inactive | C=CCOc1cccc([C@H]2c3c(oc4ccc(C)cc4c3=O)C(=O)N2Cc2ccco2)c1 | inactive | –
inactive | Cn1ccc2c(C(=O)N3CCN(Cc4cscn4)CC3)cccc21 | inactive | –
inactive | O=C(c1ccc(Cl)c(N2CCCC2=O)c1)N1CCN(Cc2ccc3c(c2)CCO3)CC1 | inactive | –
inactive | C[C@H](NC(=O)[C@H]1CC(=O)N(c2ccc3c(c2)CCC3)C1)c1cccnc1 | inactive | –
inactive | O=C(CCc1nc(-c2ccccn2)no1)OCc1ccccn1 | inactive | –
inactive | C[C@H](Cc1cnccn1)n1cc(-c2ccnc3ccccc23)nn1 | inactive | –
inactive | COc1ccc(CN2C(=O)c3ccccc3C2=O)cc1C(=O)OCc1cc(=O)n2ccsc2n1 | inactive | –
inactive | COc1cccc(C(=O)COc2ccc3c(C)c(C)c(=O)oc3c2)c1 | inactive | –
inactive | O=C1c2ccc([N+](=O)[O-])cc2C(=O)N1c1cccc(-c2nc3ccccc3c(=O)o2)c1 | inactive | –
inactive | CS(=O)(=O)N1CCc2cc(S(=O)(=O)N3CCN(Cc4ccc5c(c4)OCO5)CC3)ccc21 | inactive | –
inactive | O=C(c1ccc(N2C(=O)CCC2=O)cc1)N1CCN(Cc2nc(C3CC3)cs2)CC1 | inactive | –
inactive | CCOc1ccc(-c2n[nH]c3c2[C@H](c2ccccc2OC)NC3=O)cc1 | inactive | –
inactive | O=C(c1cn(Cc2ccc(F)cc2)cc2c(=O)n(-c3ccccc3)nc1-2)N1CCc2ccccc21 | inactive | –
inactive | O=C(OCCCn1c(=O)[nH]c2ccccc21)c1ccc2c(c1)C(=O)N(c1ccc(Cl)cc1)C2=O | inactive | –
– | O=S(=O)(c1ccc2c(c1)OCCO2)N1CCN(Cc2nc(-c3ccco3)cs2)CC1 | inactive | IC50 [2]: > 100 µM
inactive | COc1cc([C@H]2c3c(oc4ccccc4c3=O)C(=O)N2Cc2ccc(F)cc2)cc(OC)c1OC | inactive | –
– | Cn1c(-c2ccccc2)c(C(=O)COC(=O)c2ccc3c(=O)n4c(nc3c2)CCC4)c2ccccc21 | inactive | IC50 [2]: > 100 µM
inactive | O=S(=O)([N-]c1nc2ccccc2nc1-[n+]1ccc(Oc2ccccc2)cc1)c1ccccc1 | inactive | –
inactive | COc1ccc(-n2nc(C(=O)NCCc3ccc(Cl)cc3)c3c4ccccc4n(C)c3c2=O)cc1 | inactive | –

pKi [1] | Structure (SMILES) | pKi (Homo sapiens) | also measured
inactive | O=C(Oc1cccc2c(OC(=O)c3ccco3)cccc12)c1ccco1 | inactive | –
inactive | COc1cc(=O)n2c(c1C(=O)N(C)[C@@H](C)c1ccco1)CCN(C(=O)c1c(F)cccc1F)CC2 | inactive | –
inactive | COc1ccc2c(c1)c1c(c(=O)n(Cc3ccccc3)c(=O)n1Cc1cc(=O)n3ccccc3n1)n2C | inactive | –
inactive | O=C1N(Cc2ccc(F)cc2)C[C@H]2CN(Cc3nccs3)CCN12 | inactive | –
inactive | Nc1cc(-c2ncccc2C(=O)N2C[C@H]3CC[C@@H]2C3)c2cc[nH]c2n1 | inactive | –
inactive | N[C@H]1CCCN(C(=O)c2cc(-c3ccccc3)nc3ccccc23)CC1 | inactive | –
– | CN(Cc1[nH]cc[n+]1C)C(=O)C[C@H]1CN(Cc2ccccc2)CCO1 | inactive | IC50 [2]: > 100 µM
inactive | O=C(C1CC1)N1CCC[C@@H](Cn2cc(-c3cnc(-c4ccco4)nc3)nn2)C1 | inactive | –
inactive | CCc1c(C)c2ccc(OCC(=O)c3ccc(F)cc3)cc2oc1=O | inactive | –
inactive | CCc1cc2c(=O)c(-c3ccc4c(c3)OCCCO4)coc2cc1OC(=O)N1CCOCC1 | inactive | –
inactive | CCOC(=O)c1cc(C(=O)N[C@@H](C)c2ccccc2)c(C)[nH]c1=O | inactive | –
inactive | Cc1ccc(C)c(OCC(=O)Oc2ccc3c(C)cc(=O)oc3c2)c1 | inactive | –
inactive | N[C@H]1C[C@@H](C(=O)O)N(C(=O)c2ccccc2OCc2ccccc2)C1 | inactive | –
inactive | COc1cc([C@H]2c3c(oc4ccc(Cl)cc4c3=O)C(=O)N2Cc2ccccc2)ccc1O | inactive | –
inactive | Cc1nc(-c2cc(C)n(CC(=O)N3CCC[C@H]3c3ccncc3)c2C)cs1 | – | –
inactive | COc1cc2cc(C(=O)N3CCN(Cc4ccc5c(c4)OCO5)CC3)c(=O)oc2cc1OC | inactive | –
inactive | O=S(=O)(c1ccc(-c2noc(-c3ccco3)n2)cc1)N1CCCCC1 | inactive | –
inactive | COc1cccc(COc2ccc(-c3noc(-c4ccco4)n3)cc2OC)c1 | inactive | –
– | COc1ccc2c(c1)c(CC(=O)NCc1ccccn1)c(C)n2C(=O)c1ccc(Cl)cc1 | – | IC50 [2]: > 5 µM; IC50 [3]: > 5 µM
– | Cc1ccc([C@H](CCO)n2cc(-c3ccnc4ccccc34)nn2)cc1 | – | IC50 [2]: > 100 µM; IC50 [3]: > 100 µM
inactive | Cc1nn(-c2ccccc2)c(C)c1C(=O)O[C@@H](C(N)=O)c1ccccc1 | inactive | –
inactive | O=C(c1ccc(Cl)c(N2CCCC2=O)c1)N1CCN(Cc2cc(=O)n3ccsc3n2)CC1 | inactive | –

pKi [1] | Structure (SMILES) | pKi (Homo sapiens) | also measured
inactive | CCCN1C(C)=NS(=O)(=O)c2cc(C(=O)N3CCN(Cc4ccccc4)CC3)ccc21 | inactive | –
inactive | Cc1noc(CN2CCN(C(=O)c3cc4ccccn4c3)CC2)n1 | inactive | –
– | O=C1Nc2cc(C(=O)N3CCN(Cc4ccc5c(c4)OCO5)CC3)ccc2N2CCCC[C@@H]12 | – | IC50 [2]: > 100 µM; IC50 [3]: > 100 µM
– | COc1cccc(-c2nc([C@@H]3CC(=O)N(Cc4ccccc4)C3)no2)c1 | – | IC50 [2]: > 100 µM; IC50 [3]: > 100 µM
inactive | O=C(CCCN1C(=O)c2cccc3cccc(c23)C1=O)Oc1ccc(F)cc1 | inactive | –
– | O=C(CCCn1nnc2ccccc2c1=O)NC1Cc2ccccc2C1 | – | IC50 [2]: > 100 µM; pKi [3]: 4.4
– | O=S(=O)(c1cc(F)cc(F)c1)N1CCN(Cc2csc(-c3ccco3)n2)CC1 | – | IC50 [2]: > 100 µM; IC50 [3]: > 100 µM
inactive | Cc1cccc(-n2cc(C(=O)N3CCC[C@@H]([n+]4cc[nH]c4)C3)nn2)c1 | inactive | –
inactive | Cc1ccc(C(=O)Oc2ccc(N3C(=O)[C@H]4C5C=CC(C6CC65)[C@@H]4C3=O)cc2)cc1 (stereo partly specified) | inactive | –
– | O=C(c1cc2c(s1)-c1ccccc1CC2)N1CCN(Cc2cc(=O)n3ccsc3n2)CC1 | – | IC50 [2]: > 100 µM; IC50 [3]: > 100 µM
inactive | O=C1c2oc3ccc(Cl)cc3c(=O)c2[C@H](c2cccc([N+](=O)[O-])c2)N1Cc1ccccc1 | inactive | –
– | CC(=O)N1N=C(c2cn(C(C)=O)c3ccccc23)O[C@@H]1c1cccnc1 | – | IC50 [2]: > 100 µM; IC50 [3]: > 100 µM
– | Cc1nc(/C=C/C(=O)Oc2ccc3c(=O)c(-c4c(F)cccc4Cl)c(C)oc3c2)cs1 | – | IC50 [2]: > 100 µM; IC50 [3]: > 100 µM
– | Cc1ccc2c(C)c(C(=O)N3CCN(Cc4ccccn4)CC3)oc2c1C | – | IC50 [2]: > 100 µM; IC50 [3]: > 100 µM
– | Fc1ccccc1COc1cccc(CNCc2ccccn2)c1 | – | IC50 [2]: > 100 µM; pKi [3]: 4.28
inactive | Cc1cc(=O)oc2cc(OCC(=O)c3cccc4ccccc34)ccc12 | inactive | –
– | O=C(c1ccc(OCc2cn3ccccc3n2)cc1)N1CCC[C@@H]1c1ccc2c(c1)OCCO2 | – | IC50 [2]: > 100 µM; IC50 [3]: > 100 µM
inactive | CN(Cc1ccncc1)C(=O)c1ccc(COc2ccccc2C#N)o1 | inactive | –
inactive | COc1cccc([C@H]2c3c(oc4ccccc4c3=O)C(=O)N2Cc2ccccc2)c1 | inactive | –
inactive | O=C(CCCn1cnc2ccccc2c1=O)NCc1ccccn1 | inactive | –
inactive | O=C(CCCn1nnc2ccccc2c1=O)NCc1ccccn1 | inactive | –
– | CC1(C)OC[C@H](NC(=O)Nc2ccc(Br)cc2Br)[C@H](c2ccccc2)O1 | – | Ki [2]: 1.35 µM; pKi [3]: 8.18

From ChEMBL document CHEMBL4725416, “Structure-Based Discovery of Novel Ligands for the Orexin 2 Receptor” (J Med Chem, 2020)
